Experimental data reported in patent publication US20260021114A1, “COMPOSITION FOR LOWERING BLOOD LIPIDS AND CHOLESTEROL, PREPARATION METHOD THEREFOR, AND APPLICATION THEREOF” (Health and Happiness (H&H) Hong Kong Limited, priority 2022, published 2026).
Marks after values point to notes of the source that are not given here.

Assays:
[1] = test system: zebrafish hyperlipidemia model; assay: Efficacy evaluation of lowering triglyceride (Oil Red O staining of tail blood vessels); assay type: in vivo
Protocol: 5 dpf melanin allele mutant translucent Albino strain zebrafish were randomly selected and put in beakers, with 30 fish per beaker. The atorvastatin calcium and samples (see Table 3 for final concentration) were administered by dissolving in water respectively, and the normal control group and the model control group were set at the same time, and the volume of each beaker was 25 mL. Except for the normal control group, all other experimental groups were given high-fat feed in water (the high-fat feed was glucose with a final concentration of 3wt % and egg yolk powder with a final concentration of 1.5 mg/mL) to establish a zebrafish hyperlipidemia model. The samples were co-processed with high-fat feed for 15 hours (co-processed for 7.5 hours per day and kept in fish farming water at 28° C. for the rest of the day). After treatment at 28° C. for 48 hours, Oil Red O was given for whole-body fat staining. After the staining, 10 zebrafish from each experimental group were randomly selected and photographed under a dissection microscope. […] The staining intensity of the zebrafish tail blood vessels was analyzed, and the efficacy of atorvastatin calcium and sample in lowering triglycerides was evaluated based on the statistical analysis results of this indicator. Statistical processing results are expressed as mean +SE. […]

hmgcra gene = assay: Effect on the hmgcra gene expression levels (q-PCR); assay type: in vivo, zebrafish
Protocol: 5 dpf melanin allele mutant translucent Albino strain zebrafish were randomly selected and put in beakers, with 30 fish per beaker. The atorvastatin calcium and samples (see Table 7 for final concentration) were administered by dissolving in water respectively, and the normal control group and the model control group were set at the same time, and the volume of each beaker was 25 mL. Except for the normal control group, all other experimental groups were given high-fat feed in water (the high-fat feed was glucose with a final concentration of 3 wt % and egg yolk powder with a final concentration of 1.5 mg/mL) to establish a zebrafish hyperlipidemia model. The samples were co-processed with high-fat feed for 15 hours (co-processed for 7.5 hours per day). After treatment at 28° C. for 48 hours, total RNA of 2.00 μg zebrafish sample was taken, and 20.0 μL cDNA was synthesized according to the instructions of the cDNA first chain synthesis kit. The expression of β-actin and hmgcra genes was detected by q-PCR (see Table 6 for the sequence of primers). The RNA phase of hmgcra gene was calculated using […] as the internal reference of gene expression. Statistical processing results are expressed as mean +SE. Statistical analysis was performed with SPSS26.0 software, p<0.05 indicated a statistically significant difference.

model zebrafish = assay: MTC determination in zebrafish hyperlipidemia model; assay type: in vivo
Protocol: 5 dpf melanin allele mutant translucent Albino strain zebrafish were randomly selected and put in beakers, with 30 fish per beaker (experimental group). The atorvastatin calcium and samples (see Table 2 for final concentration) were administered by dissolving in water respectively, and the normal control group and the model control group were set at the same time, and the volume of each beaker was 25 mL. Except for the normal control group, all other experimental groups were given high-fat feed in water (the high-fat feed was glucose with a final concentration of 3 wt % and egg yolk powder with a final concentration of 1.5 mg/mL) to establish a zebrafish hyperlipidemia model. The samples were co-processed with high-fat feed for 15 hours (co-processed for 7.5 hours per day and kept in fish farming water at 28° C. for the rest of the day). During sample processing, the number of dead zebrafish in each experimental group was counted every day and removed in time. After treatment at 28° C. for 48 hours, the minimum toxic concentration (MTC) of atorvastatin calcium and samples to model zebrafish was determined.

[2] = test system: zebrafish hyperlipidemia model; assay: Efficacy evaluation of lowering cholesterol (cholesterol fluorescent probe, tail blood vessels); assay type: in vivo
Protocol: 5 dpf melanin allele mutant translucent Albino strain zebrafish were randomly selected and put in beakers, with 30 fish per beaker. The atorvastatin calcium and samples (see Table 4 for final concentration) were administered by dissolving in water respectively, and the normal control group and the model control group were set at the same time, and the volume of each beaker was 25 mL. Except for the normal control group, all other experimental groups were given high-fat feed in water (the high-fat feed was glucose with a final concentration of 3wt % and egg yolk powder with a final concentration of 1.5 mg/mL) to establish a zebrafish hyperlipidemia model. The samples were co-processed with high-fat feed for 15 hours (co-processed for 7.5 hours per day and kept in fish farming water at 28° C. for the rest of the day). After treatment at 28° C. for 32 hours, cholesterol fluorescent probe (final concentration 1 mg/mL) was administered. After continuing the treatment for 16 hours, 10 zebrafish from each experimental group were randomly selected and photographed under a fluorescence microscope. […] The cholesterol fluorescence intensity of the zebrafish tail blood vessels was analyzed, and the efficacy lowering cholesterol of the samples was evaluated by the statistical analysis results of this index. Statistical processing results are expressed as mean±SE. […]

SMILES: CC(C)c1c(C(=O)Nc2ccccc2)c(-c2ccccc2)c(-c2ccc(F)cc2)n1CC[C@@H](O)C[C@@H](O)CC(=O)[O-].CC(C)c1c(C(=O)Nc2ccccc2)c(-c2ccccc2)c(-c2ccc(F)cc2)n1CC[C@@H](O)C[C@@H](O)CC(=O)[O-].[Ca+2] [Atorvastatin calcium]
- Triglyceride content (Unit in pixels, mean ± SE) ([1]; 11.6 μg/mL, 48 hours, tail blood vessels staining intensity): 11104 ± 588***^c pixels
- lowering of triglycerides compared with the model control group (in words) ([1]; P<0.05 vs model control group): significantly lower triglycerides
- Relative expression of hmgcra gene (mean ± SE) (hmgcra gene; 11.6 μg/mL, 48 hours, β-actin internal reference, model control = 1): 0.542 ± 0.003***^a
- reduction of hmgcra gene expression levels compared with the model control group (in words) (hmgcra gene; P<0.05 vs model control group): significantly reduce the hmgcra gene expression levels
- Death rates (%) (model zebrafish; 11.6 μg/mL, n = 30, 48 hours): 0%
- Number of deaths (fish) (model zebrafish; 11.6 μg/mL, n = 30, 48 hours): 0 fish
- MTC (model zebrafish; model zebrafish, high-fat feed, 28° C. for 48 hours): 11.6 µg/mL
- Cholesterol content (Unit in pixels, mean ± SE) ([2]; 11.6 μg/mL, 48 hours, tail blood vessels cholesterol fluorescence intensity): 122765 ± 11371 pixels
- lowering of cholesterol compared with the model control group (in words) ([2]; P<0.05 vs model control group): significantly lower cholesterol
